# Measurements as given in ChEMBL document CHEMBL1129033, “Synthesis and antibacterial activity of U-100592 and U-100766, two oxazolidinone antibacterial agents for the potential treatment of multidrug-resistant gram-positive bacterial infections” (1996).
# Tests used:
# Staphylococcus aureus [1] = assay: In vitro antibacterial activity against Staphylococcus aures strain UC 9213; format: functional
# Klebsiella pneumoniae = assay: In vitro antibacterial activity against Klebsiella pneumoniae strain UC 12081; format: functional
# Mus musculus [2] = assay: In vivo antibacterial activity against Enterococcus faecalis strain UC 12379 administered perorally in mice; format: functional; conditions: po
# Bacteroides fragilis = assay: In vitro antibacterial activity against Bacteroides fragilis strain ATCC 25285; format: functional
# Pseudomonas aeruginosa = assay: In vitro antibacterial activity against Pseudomonas aeruginosa strain ATCC 27853; format: functional
# [3] = system: Mycobacterium tuberculosis; assay: In vitro antibacterial activity against Mycobacterium tuberculosis strain H37Rv; format: functional
# Streptococcus pneumoniae = assay: In vitro antibacterial activity against Streptococcus pneumoniae strain UC 9912; format: functional
# Clostridium perfringens = assay: In vitro antibacterial activity against Clostridium perfringens strain ATCC 13124; format: functional
# Mus musculus [4] = assay: In vivo antibacterial activity against Enterococcus faecium strain UC 15090 administered perorally in mice; format: functional; conditions: po
# Mus musculus [5] = assay: In vivo antibacterial activity against Staphylococcus aures strain UC 9213 administered perorally in mice; format: functional; conditions: po
# Staphylococcus aureus [6] = assay: In vitro antibacterial activity against Staphylococcus aures strain ATCC 29213; format: functional
# Mus musculus [7] = assay: (§1) In vivo antibacterial activity against Staphylococcus aures strain UC 9213 administered subcutaneously in mice; format: functional; conditions: sc
# [8] = system: Staphylococcus epidermidis; assay: In vitro antibacterial activity against Staphylococcus epidermis strain UC 30031; format: functional
# Enterococcus faecium = assay: In vitro antibacterial activity against Enterococcus faecium strain UC12712; format: functional
# Streptococcus pyogenes = assay: In vitro antibacterial activity against Streptococcus pyogenes strain UC 152; format: functional
# Escherichia coli = assay: In vitro antibacterial activity against Escherichia coli strain ATCC 25922; format: functional
# Enterococcus faecalis = assay: In vitro antibacterial activity against Enterococcus faecalis strain ATCC 29212; format: functional
# Staphylococcus aureus [9] = assay: In vitro antibacterial activity against Staphylococcus aures strain UC12673; format: functional
# Mus musculus [10] = assay: as §1; format: functional; conditions: sc; remark: listed apart in the source
# Mus musculus [11] = assay: In vivo antibacterial activity against Enterococcus faecium strain UC 15090 administered subcutaneously in mice; format: functional; conditions: sc
# [12] = system: Mycobacterium tuberculosis; assay: In vitro antibacterial activity against Mycobacterium tuberculosis strain H37Rv; f means comparative control value for isoniazid was 0.20 ug/mL.; format: functional, organism-based
# Mus musculus [13] = assay: In vivo antibacterial activity against Enterococcus faecalis strain UC 12379 administered subcutaneously in mice; format: functional; conditions: sc
Compound,MIC (Klebsiella pneumoniae) [µg/mL],ED50 (Mus musculus [2]) [mg/kg],MIC (Bacteroides fragilis) [µg/mL],MIC (Pseudomonas aeruginosa) [µg/mL],MIC [3] [µg/mL],MIC (Streptococcus pneumoniae) [µg/mL],MIC (Clostridium perfringens) [µg/mL],ED50 (Mus musculus [4]) [mg/kg],ED50 (Mus musculus [5]) [mg/kg],ED50 (Mus musculus [7]) [mg/kg],MIC [8] [µg/mL],MIC (Enterococcus faecium) [µg/mL],MIC (Streptococcus pyogenes) [µg/mL],MIC (Escherichia coli) [µg/mL],also measured
CC(=O)NC[C@H]1CN(c2ccc(N3CCN(C(=O)CO)CC3)c(F)c2)C(=O)O1 [EPEREZOLID],> 64,1.3,1,> 64,< 0.125,0.5,1,12.5,1.9,0.9,1,1,1,> 64,MIC (Staphylococcus aureus [1]): 4 µg/mL; MIC (Staphylococcus aureus [6]): 4 µg/mL; MIC (Enterococcus faecalis): 2 µg/mL; MIC (Staphylococcus aureus [9]): 2 µg/mL
CN[C@H](CC(C)C)C(=O)N[C@H]1C(=O)N[C@@H](CC(N)=O)C(=O)N[C@H]2C(=O)N[C@H]3C(=O)N[C@H](C(=O)N[C@H](C(=O)O)c4cc(O)cc(O)c4-c4cc3ccc4O)[C@H](O)c3ccc(c(Cl)c3)Oc3cc2cc(c3O[C@@H]2O[C@H](CO)[C@@H](O)[C@H](O)[C@H]2O[C@H]2C[C@](C)(N)[C@H](O)[C@H](C)O2)Oc2ccc(cc2Cl)[C@H]1O [VANCOMYCIN],> 64,–,> 16,> 64,–,0.5,1,–,–,3.9,–,–,–,> 64,ED50 (Mus musculus [10]): 3.9 mg/kg; ED50 (Mus musculus [11]): > 100 mg/kg; MIC [12]: Comparitive control valie for isonazid was 0.20 ug/ml; ED50 (Mus musculus [13]): < 0.6 mg/kg
CC(=O)NC[C@H]1CN(c2ccc(N3CCOCC3)c(F)c2)C(=O)O1 [LINEZOLID],> 64,10,1,> 64,< 0.125,–,1,24,5.6,2,1,2,2,> 64,–
